Calls of active or inactive are those of the source. No cut-off for these calls is given here.
Experiments:
Type in all cases: cell-based
[1] = target: T1, Transient receptor potential cation channel subfamily V member 3 (Homo sapiens) (UniProt Q8NET8); test: Antagonist activity at human TRPV3 channel expressed in HEK293T cells assessed as inhibition of 2-APB induced channel current at 50 uM by whole cell patch clamp recordings relative to control
T1 sequence (whole entry): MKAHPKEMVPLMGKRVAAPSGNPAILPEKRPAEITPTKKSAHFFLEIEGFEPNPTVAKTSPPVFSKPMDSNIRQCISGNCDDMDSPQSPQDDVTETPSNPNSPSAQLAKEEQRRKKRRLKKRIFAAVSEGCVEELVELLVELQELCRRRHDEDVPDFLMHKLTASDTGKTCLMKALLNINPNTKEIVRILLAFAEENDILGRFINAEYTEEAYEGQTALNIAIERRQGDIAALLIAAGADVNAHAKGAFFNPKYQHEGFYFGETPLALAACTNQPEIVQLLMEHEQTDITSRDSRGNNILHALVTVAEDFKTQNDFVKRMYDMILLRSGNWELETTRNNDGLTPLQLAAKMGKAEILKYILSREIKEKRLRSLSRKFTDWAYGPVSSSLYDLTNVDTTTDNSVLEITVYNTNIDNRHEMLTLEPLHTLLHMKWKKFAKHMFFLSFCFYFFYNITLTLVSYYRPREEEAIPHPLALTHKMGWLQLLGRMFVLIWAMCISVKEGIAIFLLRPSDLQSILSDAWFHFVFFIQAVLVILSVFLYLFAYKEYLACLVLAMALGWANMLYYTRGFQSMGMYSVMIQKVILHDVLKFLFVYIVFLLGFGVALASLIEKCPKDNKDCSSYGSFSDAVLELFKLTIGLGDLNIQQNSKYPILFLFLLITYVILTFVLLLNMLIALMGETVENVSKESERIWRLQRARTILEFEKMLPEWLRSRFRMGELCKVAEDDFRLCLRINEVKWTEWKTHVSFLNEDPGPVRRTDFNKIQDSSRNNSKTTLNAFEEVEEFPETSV

[2] = target: Transient receptor potential cation channel subfamily V member 4 (Homo sapiens) (UniProt Q9HBA0); test: Antagonist activity at TRPV4 (unknown origin) expressed in HEK293T cells assessed as inhibition of agonist induced channel current by whole-cell patch clamp recordings
[3] = target: Transient receptor potential cation channel subfamily M member 8 (Homo sapiens) (UniProt Q7Z2W7); test: Antagonist activity at TRPM8 (unknown origin) expressed in HEK293T cells assessed as inhibition of agonist induced channel current by whole-cell patch clamp recordings
[4] = target: T2, Transient receptor potential cation channel subfamily V member 3 (Homo sapiens, UniProt Q8NET8); test: Antagonist activity at human TRPV3 channel expressed in HEK293T cells assessed as inhibition of 2-APB induced channel current by whole cell patch clamp recordings
T2 sequence (Q8NET8 whole entry): T1 sequence (whole entry)

[5] = target: Transient receptor potential cation channel subfamily A member 1 (Homo sapiens) (UniProt O75762); test: Antagonist activity at TRPA1 (unknown origin) expressed in HEK293T cells assessed as inhibition of agonist induced channel current by whole-cell patch clamp recordings
[6] = target: Transient receptor potential cation channel subfamily V member 1 (Homo sapiens) (UniProt Q8NER1); test: Antagonist activity at TRPV1 (unknown origin) expressed in HEK293T cells assessed as inhibition of agonist induced channel current by whole-cell patch clamp recordings
Transient receptor potential cation channel subfamily V member 1 (Homo sapiens), sequence (Q8NER1 whole entry): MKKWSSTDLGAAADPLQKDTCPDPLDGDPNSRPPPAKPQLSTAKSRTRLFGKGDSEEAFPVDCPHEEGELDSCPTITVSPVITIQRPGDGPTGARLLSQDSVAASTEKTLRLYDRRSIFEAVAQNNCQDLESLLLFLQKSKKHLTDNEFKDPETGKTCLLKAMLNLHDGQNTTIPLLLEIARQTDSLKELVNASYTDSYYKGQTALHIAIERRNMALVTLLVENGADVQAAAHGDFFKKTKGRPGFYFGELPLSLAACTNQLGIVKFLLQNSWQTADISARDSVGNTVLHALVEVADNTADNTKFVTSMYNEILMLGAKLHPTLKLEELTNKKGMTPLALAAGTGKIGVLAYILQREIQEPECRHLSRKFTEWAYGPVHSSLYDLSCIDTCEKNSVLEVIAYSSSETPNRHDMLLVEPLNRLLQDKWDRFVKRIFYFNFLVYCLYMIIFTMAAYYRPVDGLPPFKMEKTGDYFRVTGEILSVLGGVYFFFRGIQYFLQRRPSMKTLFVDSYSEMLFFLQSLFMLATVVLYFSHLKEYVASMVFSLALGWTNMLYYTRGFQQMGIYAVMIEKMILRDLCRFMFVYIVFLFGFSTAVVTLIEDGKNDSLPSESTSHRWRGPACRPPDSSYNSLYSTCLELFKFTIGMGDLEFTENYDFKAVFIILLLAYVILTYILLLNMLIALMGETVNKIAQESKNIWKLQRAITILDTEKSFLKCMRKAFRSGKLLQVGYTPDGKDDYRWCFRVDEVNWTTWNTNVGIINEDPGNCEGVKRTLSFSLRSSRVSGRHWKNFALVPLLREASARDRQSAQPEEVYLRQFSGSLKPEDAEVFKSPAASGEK

Transient receptor potential cation channel subfamily A member 1 (Homo sapiens), sequence (O75762 whole entry): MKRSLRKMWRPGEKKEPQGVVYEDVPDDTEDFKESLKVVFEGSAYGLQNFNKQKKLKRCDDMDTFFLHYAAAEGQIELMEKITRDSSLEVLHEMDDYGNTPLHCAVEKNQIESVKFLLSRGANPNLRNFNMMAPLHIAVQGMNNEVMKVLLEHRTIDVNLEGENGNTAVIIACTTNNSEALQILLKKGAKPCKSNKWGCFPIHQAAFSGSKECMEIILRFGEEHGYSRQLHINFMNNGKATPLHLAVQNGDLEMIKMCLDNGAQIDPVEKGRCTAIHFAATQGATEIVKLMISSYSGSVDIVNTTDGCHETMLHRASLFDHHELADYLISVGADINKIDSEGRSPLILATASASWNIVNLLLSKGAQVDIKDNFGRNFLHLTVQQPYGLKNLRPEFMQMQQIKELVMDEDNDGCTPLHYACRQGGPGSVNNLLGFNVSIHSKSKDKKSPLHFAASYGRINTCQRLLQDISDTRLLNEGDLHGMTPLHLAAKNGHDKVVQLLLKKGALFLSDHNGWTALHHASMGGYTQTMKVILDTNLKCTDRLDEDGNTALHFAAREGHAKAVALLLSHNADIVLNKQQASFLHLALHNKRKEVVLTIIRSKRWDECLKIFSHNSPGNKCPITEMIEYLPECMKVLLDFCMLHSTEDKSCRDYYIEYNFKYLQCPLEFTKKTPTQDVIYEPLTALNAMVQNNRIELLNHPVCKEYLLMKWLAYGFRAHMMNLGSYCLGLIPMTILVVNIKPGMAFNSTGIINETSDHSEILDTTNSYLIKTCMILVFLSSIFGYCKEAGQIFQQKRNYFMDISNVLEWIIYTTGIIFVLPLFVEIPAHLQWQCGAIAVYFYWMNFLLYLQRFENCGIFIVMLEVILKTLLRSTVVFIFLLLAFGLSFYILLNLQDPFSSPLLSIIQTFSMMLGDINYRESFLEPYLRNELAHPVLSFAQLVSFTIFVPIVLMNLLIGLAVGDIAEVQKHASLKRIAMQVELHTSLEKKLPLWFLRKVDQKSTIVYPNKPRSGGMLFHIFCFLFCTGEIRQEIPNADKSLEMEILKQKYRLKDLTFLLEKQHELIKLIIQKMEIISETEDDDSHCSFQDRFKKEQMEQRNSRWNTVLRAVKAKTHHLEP
Transient receptor potential cation channel subfamily M member 8 (Homo sapiens), sequence (Q7Z2W7 whole entry, looked up): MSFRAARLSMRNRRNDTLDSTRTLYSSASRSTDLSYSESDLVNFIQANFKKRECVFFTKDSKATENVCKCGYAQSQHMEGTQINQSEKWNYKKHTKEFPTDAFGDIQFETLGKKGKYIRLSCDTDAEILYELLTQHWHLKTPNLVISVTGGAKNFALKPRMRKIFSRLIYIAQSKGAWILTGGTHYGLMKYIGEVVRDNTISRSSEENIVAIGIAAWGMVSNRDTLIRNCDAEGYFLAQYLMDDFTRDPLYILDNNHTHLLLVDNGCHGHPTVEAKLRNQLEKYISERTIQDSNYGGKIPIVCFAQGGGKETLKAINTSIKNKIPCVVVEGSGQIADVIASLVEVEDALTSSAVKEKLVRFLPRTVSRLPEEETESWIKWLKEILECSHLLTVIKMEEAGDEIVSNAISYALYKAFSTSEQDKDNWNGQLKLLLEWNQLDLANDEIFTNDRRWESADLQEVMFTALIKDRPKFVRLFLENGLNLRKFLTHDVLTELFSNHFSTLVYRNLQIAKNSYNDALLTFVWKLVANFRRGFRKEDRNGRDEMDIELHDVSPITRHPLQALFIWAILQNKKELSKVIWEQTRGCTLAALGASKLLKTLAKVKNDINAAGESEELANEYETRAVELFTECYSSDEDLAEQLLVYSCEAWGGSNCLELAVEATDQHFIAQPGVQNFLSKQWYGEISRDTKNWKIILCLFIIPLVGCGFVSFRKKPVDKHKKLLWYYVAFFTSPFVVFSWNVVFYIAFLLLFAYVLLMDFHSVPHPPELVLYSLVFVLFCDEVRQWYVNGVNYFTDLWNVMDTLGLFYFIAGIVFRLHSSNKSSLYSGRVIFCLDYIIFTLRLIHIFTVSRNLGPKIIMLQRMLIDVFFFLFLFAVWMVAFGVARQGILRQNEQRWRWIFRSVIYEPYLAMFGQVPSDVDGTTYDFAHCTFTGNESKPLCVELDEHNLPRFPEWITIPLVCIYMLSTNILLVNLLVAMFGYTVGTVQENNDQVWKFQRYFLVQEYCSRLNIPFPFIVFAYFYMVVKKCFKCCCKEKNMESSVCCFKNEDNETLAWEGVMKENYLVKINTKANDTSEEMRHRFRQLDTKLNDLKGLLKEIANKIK
Transient receptor potential cation channel subfamily V member 4 (Homo sapiens), sequence (Q9HBA0 whole entry): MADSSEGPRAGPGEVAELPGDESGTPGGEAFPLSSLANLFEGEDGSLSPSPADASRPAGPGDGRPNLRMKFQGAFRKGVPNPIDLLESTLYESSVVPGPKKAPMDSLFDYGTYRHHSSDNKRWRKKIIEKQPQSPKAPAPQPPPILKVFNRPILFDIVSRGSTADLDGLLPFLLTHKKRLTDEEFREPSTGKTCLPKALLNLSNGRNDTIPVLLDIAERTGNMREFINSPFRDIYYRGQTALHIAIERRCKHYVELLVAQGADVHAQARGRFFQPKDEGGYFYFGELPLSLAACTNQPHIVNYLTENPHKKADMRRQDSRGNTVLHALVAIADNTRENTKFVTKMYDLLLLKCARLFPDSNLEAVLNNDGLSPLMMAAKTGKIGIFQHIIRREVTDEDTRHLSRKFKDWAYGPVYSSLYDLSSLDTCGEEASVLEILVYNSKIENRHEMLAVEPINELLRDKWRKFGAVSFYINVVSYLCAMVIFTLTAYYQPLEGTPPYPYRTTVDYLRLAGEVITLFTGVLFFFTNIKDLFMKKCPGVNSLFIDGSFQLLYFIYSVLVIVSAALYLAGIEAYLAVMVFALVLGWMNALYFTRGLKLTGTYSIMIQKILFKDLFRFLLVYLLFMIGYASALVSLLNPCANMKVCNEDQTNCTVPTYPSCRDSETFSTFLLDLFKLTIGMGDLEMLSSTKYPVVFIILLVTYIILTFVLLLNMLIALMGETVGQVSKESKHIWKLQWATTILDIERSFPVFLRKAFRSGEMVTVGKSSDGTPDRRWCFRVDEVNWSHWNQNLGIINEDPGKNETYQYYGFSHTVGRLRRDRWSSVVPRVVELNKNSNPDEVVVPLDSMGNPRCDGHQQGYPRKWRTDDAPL

**Q.** Which inhibition [1] does the source give for O=c1cc(-c2cccc(O)c2)oc2c(O)c(O)ccc12 here?
**A.** The inhibition was 31.4%.

**Q.** With O=c1cc(-c2ccc(OC(F)(F)F)cc2)oc2cc(O)cc(O)c12 as the molecule, how does the inhibition [1] read?
**A.** Its inhibition is 3.81%.

**Q.** O=c1cc(-c2ccc(F)cc2)oc2cc(O)cc(O)c12 was tested. Which inhibition [1] did it give?
**A.** Its inhibition is 21.2%.

**Q.** With O=c1cc(-c2ccc(O)cc2Br)oc2cc(O)cc(O)c12 as the molecule, how does the inhibition ([1]; filed as antagonist) read?
**A.** Its inhibition is 51.7%.

**Q.** COc1ccc(-c2cc(=O)c3c(O)cc(O)cc3o2)cc1 [ACACETIN] was tested. Which Activity [2] did it give?
**A.** The Activity was “inactive”.

**Q.** What about the Activity [3] of the same molecule?
**A.** Its Activity is “inactive”.

**Q.** What about the IC50 [4] of the same molecule?
**A.** The IC50 was 0.62 µM.

**Q.** What about the Activity [5] of the same molecule?
**A.** Its Activity is “inactive”.

**Q.** What about the Activity [6] of the same molecule?
**A.** Its Activity is “inactive”.

**Q.** And the inhibition ([1]; filed as antagonist)?
**A.** Its inhibition is 61.8%.

**Q.** Which results are given for C[C@@H]1O[C@@H](O[C@@H]2[C@@H](O)[C@H](OCCc3ccc(O)c(O)c3)O[C@H](CO[C@@H]3OC[C@](O)(CO)[C@H]3O)[C@H]2OC(=O)/C=C/c2ccc(O)c(O)c2)[C@H](O)[C@H](O)[C@H]1O?
**A.** IC50 [4]: 10.8 µM; inhibition ([1]; filed as antagonist): 58.8%

**Q.** For O=c1cc(-c2ccc(O)cc2F)oc2cc(O)cc(O)c12, which inhibition [1] is on record?
**A.** The inhibition was 13%.

**Q.** Cc1ccc(-c2cc(=O)c3c(O)cc(O)cc3o2)cc1 was tested. Which inhibition [1] did it give?
**A.** Its inhibition is 10.3%.

**Q.** With O=c1cc(-c2ccc(Br)cc2)oc2cc(O)ccc12 as the molecule, how does the inhibition [1] read?
**A.** The inhibition was 1.94%.

**Q.** With COc1ccc(C2CC(=O)c3c(O)cccc3O2)cc1 (stereo not drawn) as the molecule, how does the inhibition [1] read?
**A.** The inhibition was 4.96%.

**Q.** For COc1ccc(-c2cc(=O)c3c(O)cccc3o2)cc1, which inhibition [1] is on record?
**A.** The inhibition was 4.68%.

**Q.** Which inhibition [1] does the source give for COCOc1cc(OCOC)c2c(c1)OC(c1ccc(F)cc1)CC2=O (stereo not drawn) here?
**A.** Its inhibition is 5.55%.

From ChEMBL document CHEMBL5356963, “Discovery of flavone-derivatives as the new skeleton of transient receptor potential vanilloid 3 channel antagonists” (Bioorg Med Chem Lett, 2024)
